# Source: ChEMBL document CHEMBL5696441 (Nat Chem Biol, 2011)
# Experiments:
# [1] = target: Tyrosine-protein kinase SYK (Homo sapiens) (UniProt P43405); experiment: Inhibition of human SYK (1 to 635 residues) assessed as residual activity at 1 uM using polyEY as substrate in presence of 33P-ATP by ProQinase assay relative to control
# [2] = test system: Epidermal growth factor receptor (Homo sapiens), P00533 [G719C]; experiment: Inhibition of human EGFR G719C mutant assessed as residual activity at 1 uM using PolyEY as substrate in presence of 33P-ATP by ProQinase assay relative to control
# [3] = target: Interleukin-1 receptor-associated kinase 1 (Homo sapiens) (UniProt P51617); experiment: Inhibition of human IRAK1 assessed as residual activity at 1 uM using RB-CTF as substrate in presence of 33P-ATP by ProQinase assay relative to control
# [4] = target: Vascular endothelial growth factor receptor 2 (Homo sapiens) (UniProt P35968); experiment: Inhibition of human VEGFR2 assessed as residual activity at 1 uM using polyEY as substrate in presence of 33P-ATP by ProQinase assay relative to control
# [5] = target: Epidermal growth factor receptor (Homo sapiens) (UniProt P00533); experiment: Inhibition of human EGFR assessed as residual activity at 1 uM using PolyEY as substrate in presence of 33P-ATP by ProQinase assay relative to control
# [6] = test system: Dual specificity mitogen-activated protein kinase kinase 6 (Homo sapiens), P52564 [S207D,T211D]; experiment: Inhibition of human MKK6 S207D/T211D double mutant assessed as residual activity at 1 uM using p38-alpha KA as substrate in presence of 33P-ATP by ProQinase assay relative to control
# [7] = target: Tyrosine-protein kinase Lyn (Homo sapiens) (UniProt P07948); experiment: Inhibition of human LYN assessed as residual activity at 1 uM using polyEY as substrate in presence of 33P-ATP by ProQinase assay relative to control
# Sequence of Tyrosine-protein kinase Lyn (Homo sapiens) (P07948 2-512 limits assumed): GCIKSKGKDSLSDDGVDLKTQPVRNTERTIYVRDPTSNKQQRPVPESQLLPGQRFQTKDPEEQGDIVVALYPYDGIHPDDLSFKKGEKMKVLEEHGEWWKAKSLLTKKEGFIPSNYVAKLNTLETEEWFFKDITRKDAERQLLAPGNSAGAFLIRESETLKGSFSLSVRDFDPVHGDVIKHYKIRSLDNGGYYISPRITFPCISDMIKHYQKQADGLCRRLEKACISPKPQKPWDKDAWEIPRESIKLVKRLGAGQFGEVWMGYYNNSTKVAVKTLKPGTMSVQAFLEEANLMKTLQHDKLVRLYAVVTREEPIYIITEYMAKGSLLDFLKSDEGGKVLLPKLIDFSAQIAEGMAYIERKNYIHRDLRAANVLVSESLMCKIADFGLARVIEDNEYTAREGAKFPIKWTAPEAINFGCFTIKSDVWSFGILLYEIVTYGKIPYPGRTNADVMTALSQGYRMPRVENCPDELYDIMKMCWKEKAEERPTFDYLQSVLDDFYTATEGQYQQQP
# [8] = target: RAC-beta serine/threonine-protein kinase (Homo sapiens) (UniProt P31751); experiment: Inhibition of human AKT2 assessed as residual activity at 1 uM using RBER-GSK3(14-27) as substrate in presence of 33P-ATP by ProQinase assay relative to control
# [9] = Anti-inflammatory activity against human derived high respond PBMC cells assessed as inhibition in stimulated IL-10 cytokine release incubated for 2 hrs in the presence of LPS/SEB/aCD28 by Luminex based sandwich immunoassay; type: functional, cell-based
# [10] = test system: Serine/threonine-protein kinase B-raf (Homo sapiens), P15056 [V600E]; experiment: Inhibition of BRAF V600E mutant (unknown origin) assessed as remaining activity at 1 uM by Kinome scan method relative to control
# [11] = target: Death-associated protein kinase 3 (Homo sapiens) (UniProt O43293); experiment: Inhibition of DAPK3 (unknown origin) assessed as remaining activity at 1 uM by Kinome scan method relative to control
# [12] = target: G protein-coupled receptor kinase 3 (Homo sapiens) (UniProt P35626); experiment: Inhibition of human GRK3 assessed as residual activity at 1 uM using casein as substrate in presence of 33P-ATP by ProQinase assay relative to control
# [13] = target: RAC-alpha serine/threonine-protein kinase (Homo sapiens) (UniProt P31749); experiment: Inhibition of AKT1 (unknown origin) assessed as remaining activity at 1 uM by Kinome scan method relative to control
# Sequence of RAC-alpha serine/threonine-protein kinase (Homo sapiens) (P31749 whole entry): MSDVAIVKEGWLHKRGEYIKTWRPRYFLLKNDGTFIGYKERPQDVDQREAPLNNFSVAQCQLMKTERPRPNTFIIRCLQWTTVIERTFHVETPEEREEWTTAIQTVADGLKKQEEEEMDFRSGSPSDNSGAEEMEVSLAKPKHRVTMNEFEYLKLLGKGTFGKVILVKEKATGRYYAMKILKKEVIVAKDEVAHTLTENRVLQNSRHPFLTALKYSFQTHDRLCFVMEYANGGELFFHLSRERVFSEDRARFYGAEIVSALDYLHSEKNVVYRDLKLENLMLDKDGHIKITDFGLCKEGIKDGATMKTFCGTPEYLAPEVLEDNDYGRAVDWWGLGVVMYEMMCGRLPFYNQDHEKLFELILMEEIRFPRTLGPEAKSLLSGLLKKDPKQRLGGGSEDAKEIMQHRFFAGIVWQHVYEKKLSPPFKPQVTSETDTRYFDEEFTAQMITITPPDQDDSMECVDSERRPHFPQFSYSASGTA
# [14] = test system: Leucine-rich repeat serine/threonine-protein kinase 2 (Homo sapiens), Q5S007 [R1441C]; experiment: Inhibition of human LRRK2 R1441C mutant assessed as residual activity at 1 uM using RBER-CHKtide as substrate in presence of 33P-ATP by ProQinase assay relative to control
# Sequence of Leucine-rich repeat serine/threonine-protein kinase 2 (Homo sapiens), Q5S007 [R1441C] (Q5S007 whole entry R1441C): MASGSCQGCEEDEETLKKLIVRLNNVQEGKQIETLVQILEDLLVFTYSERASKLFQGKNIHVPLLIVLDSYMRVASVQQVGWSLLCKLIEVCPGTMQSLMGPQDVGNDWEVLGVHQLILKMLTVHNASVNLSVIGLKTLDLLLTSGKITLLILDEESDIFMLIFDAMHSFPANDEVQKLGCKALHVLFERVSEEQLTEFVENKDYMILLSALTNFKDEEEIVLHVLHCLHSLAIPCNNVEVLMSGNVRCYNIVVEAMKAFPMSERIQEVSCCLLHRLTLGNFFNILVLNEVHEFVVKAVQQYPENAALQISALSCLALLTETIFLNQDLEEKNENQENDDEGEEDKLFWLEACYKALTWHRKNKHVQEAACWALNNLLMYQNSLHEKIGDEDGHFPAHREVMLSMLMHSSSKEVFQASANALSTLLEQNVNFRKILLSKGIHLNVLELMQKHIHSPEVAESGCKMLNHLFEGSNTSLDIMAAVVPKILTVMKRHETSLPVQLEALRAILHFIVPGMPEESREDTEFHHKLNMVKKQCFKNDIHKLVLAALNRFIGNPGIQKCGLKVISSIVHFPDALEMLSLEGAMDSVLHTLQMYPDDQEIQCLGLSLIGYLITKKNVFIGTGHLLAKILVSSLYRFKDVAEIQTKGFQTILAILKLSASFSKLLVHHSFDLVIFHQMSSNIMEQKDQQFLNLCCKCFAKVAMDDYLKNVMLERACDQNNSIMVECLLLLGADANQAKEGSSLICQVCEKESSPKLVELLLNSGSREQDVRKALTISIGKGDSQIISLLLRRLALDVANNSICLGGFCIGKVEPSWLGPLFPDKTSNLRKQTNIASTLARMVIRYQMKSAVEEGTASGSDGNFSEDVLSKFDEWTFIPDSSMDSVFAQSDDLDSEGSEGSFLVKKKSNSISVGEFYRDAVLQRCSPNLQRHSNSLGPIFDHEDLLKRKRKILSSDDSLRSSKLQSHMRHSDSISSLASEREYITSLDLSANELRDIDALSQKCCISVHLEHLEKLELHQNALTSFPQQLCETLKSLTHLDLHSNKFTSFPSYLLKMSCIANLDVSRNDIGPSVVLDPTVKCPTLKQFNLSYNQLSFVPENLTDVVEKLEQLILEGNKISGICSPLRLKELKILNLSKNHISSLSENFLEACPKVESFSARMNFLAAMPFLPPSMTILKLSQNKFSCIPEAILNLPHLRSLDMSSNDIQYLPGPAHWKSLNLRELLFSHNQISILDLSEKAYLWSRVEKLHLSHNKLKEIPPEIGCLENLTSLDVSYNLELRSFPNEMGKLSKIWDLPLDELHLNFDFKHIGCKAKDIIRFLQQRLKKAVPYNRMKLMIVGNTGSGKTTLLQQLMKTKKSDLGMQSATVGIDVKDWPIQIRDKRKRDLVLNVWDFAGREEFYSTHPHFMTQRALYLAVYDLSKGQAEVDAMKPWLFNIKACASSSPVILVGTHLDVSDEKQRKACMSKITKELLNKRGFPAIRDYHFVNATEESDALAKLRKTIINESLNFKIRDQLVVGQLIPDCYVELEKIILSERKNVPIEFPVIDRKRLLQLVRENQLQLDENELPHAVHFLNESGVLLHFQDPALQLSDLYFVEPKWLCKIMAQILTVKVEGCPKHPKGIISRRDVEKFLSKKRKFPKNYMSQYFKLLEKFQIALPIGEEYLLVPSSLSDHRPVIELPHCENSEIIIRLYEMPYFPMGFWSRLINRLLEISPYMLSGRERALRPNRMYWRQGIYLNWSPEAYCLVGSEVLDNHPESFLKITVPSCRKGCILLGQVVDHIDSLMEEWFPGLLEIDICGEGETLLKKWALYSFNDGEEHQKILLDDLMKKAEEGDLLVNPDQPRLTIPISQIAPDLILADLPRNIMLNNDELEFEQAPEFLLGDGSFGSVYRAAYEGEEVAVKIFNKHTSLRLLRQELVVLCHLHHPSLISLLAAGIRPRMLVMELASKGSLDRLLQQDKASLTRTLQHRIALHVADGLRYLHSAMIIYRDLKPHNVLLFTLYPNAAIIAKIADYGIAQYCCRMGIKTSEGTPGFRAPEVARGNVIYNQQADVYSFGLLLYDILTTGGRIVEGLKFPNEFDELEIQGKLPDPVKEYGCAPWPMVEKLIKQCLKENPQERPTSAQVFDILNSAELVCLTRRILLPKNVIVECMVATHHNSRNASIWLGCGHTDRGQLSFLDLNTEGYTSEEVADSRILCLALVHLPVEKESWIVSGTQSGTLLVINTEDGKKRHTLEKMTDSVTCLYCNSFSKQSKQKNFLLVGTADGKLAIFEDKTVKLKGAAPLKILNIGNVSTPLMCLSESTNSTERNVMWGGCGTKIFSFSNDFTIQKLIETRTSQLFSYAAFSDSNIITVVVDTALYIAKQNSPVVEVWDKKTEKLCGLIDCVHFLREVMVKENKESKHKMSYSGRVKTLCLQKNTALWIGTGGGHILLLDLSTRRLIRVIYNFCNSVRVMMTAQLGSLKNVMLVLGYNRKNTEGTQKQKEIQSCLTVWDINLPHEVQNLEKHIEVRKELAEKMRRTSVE
# [15] = target: Cyclin-dependent kinase 1/cyclin B1 (Homo sapiens) (UniProt P06493+P14635); experiment: Inhibition of human CDK1/CycB1 assessed as residual activity at 1 uM using RBER-CHKtide as substrate in presence of 33P-ATP by ProQinase assay relative to control; type: protein-complex assay
# Sequence of Cyclin-dependent kinase 1/cyclin B1 (Homo sapiens) (P06493 whole entry, looked up): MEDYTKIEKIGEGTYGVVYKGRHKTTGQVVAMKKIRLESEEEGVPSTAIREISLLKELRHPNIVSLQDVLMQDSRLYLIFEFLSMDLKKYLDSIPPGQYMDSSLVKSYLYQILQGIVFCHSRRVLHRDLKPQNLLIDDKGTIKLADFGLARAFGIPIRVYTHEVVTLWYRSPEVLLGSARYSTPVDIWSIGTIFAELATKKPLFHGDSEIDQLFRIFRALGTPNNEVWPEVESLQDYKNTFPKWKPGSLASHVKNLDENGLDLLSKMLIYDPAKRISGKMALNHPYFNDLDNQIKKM
# Sequence of Cyclin-dependent kinase 1/cyclin B1 (Homo sapiens) (P14635 whole entry, looked up): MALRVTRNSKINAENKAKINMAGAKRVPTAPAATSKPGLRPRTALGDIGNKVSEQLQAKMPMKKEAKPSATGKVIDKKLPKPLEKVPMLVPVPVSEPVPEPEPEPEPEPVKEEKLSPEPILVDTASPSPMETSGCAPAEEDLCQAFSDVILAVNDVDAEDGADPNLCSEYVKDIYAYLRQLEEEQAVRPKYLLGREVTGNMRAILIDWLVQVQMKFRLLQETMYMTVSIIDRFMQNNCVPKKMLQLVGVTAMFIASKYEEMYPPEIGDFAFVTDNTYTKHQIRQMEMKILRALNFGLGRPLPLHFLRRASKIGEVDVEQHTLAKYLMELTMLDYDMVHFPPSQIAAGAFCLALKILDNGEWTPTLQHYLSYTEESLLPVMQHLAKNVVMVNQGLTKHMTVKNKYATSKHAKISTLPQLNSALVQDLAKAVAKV
# [16] = target: Proto-oncogene tyrosine-protein kinase receptor Ret (Homo sapiens) (UniProt P07949); experiment: Inhibition of human RET assessed as residual activity at 1 uM using polyEY as substrate in presence of 33P-ATP by ProQinase assay relative to control
# [17] = target: Tyrosine-protein kinase ZAP-70 (Homo sapiens) (UniProt P43403); experiment: Inhibition of ZAP70 (unknown origin) assessed as remaining activity at 1 uM by Kinome scan method relative to control
# Sequence of Tyrosine-protein kinase ZAP-70 (Homo sapiens) (P43403 whole entry): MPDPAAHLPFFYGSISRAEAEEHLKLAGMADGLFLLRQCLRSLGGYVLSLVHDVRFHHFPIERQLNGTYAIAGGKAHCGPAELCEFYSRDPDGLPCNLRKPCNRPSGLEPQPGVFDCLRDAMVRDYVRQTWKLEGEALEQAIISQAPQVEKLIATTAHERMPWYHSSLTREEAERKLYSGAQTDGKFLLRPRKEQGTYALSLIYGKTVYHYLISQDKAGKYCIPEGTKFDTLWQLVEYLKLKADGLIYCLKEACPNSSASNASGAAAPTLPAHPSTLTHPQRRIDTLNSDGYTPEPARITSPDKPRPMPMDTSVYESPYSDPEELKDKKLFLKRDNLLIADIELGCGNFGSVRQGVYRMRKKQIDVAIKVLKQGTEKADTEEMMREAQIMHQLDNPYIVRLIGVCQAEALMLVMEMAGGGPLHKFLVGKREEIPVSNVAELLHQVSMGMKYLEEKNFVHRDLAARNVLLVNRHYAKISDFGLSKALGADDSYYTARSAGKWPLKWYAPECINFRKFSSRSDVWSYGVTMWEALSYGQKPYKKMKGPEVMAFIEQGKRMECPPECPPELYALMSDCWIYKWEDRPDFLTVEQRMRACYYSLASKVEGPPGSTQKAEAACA
# [18] = target: Fibroblast growth factor receptor 4 (Homo sapiens) (UniProt P22455); experiment: Inhibition of FGFR4 (unknown origin) assessed as remaining activity at 1 uM by Kinome scan method relative to control
# [19] = target: Protein kinase C beta type (Homo sapiens) (UniProt P05771); experiment: Inhibition of human PKCbeta2 assessed as residual activity at 1 uM using 3xChocktide-PKC as substrate in presence of 33P-ATP by ProQinase assay relative to control
structure (smiles),measurement,setting,value
O=C1c2ccc(Nc3ccc(F)cc3F)cc2CCc2ccc(OC[C@H](O)CO)cc21 [Skepinone-L],Activity,[1],98%
same,Activity,[2],74%
same,Activity,[3],101%
same,Activity,[4],91%
same,Activity,[5],94%
same,Activity,[6],120%
same,Activity,[7],98%
same,Activity,[8],121%
same,IC50,[9],0.05 µM
same,Activity,[10],100%
same,Activity,[11],100%
same,Activity,[12],95%
same,Activity,[13],100%
same,Activity,[14],89%
same,Activity,[15],83%
same,Activity,[16],102%
same,Activity,[17],100%
same,Activity,[18],98%
same,Activity,[19],97%
